# Results: publication PMC6469979, “A Dopamine-Responsive Signal Transduction Controls Transcription of Salmonella enterica Serovar Typhimurium Virulence Genes” (mBio, 2019)
# Target: EmrR-His6 (EmrR) (Salmonella enterica, UniProt Q7CPY9)
# Experiment: EMSA, release of EmrR-His6 from […]-labelled pagC-pagD promoter DNA
# Details: dopamine 1, 10, 100 uM; 50 pmol EmrR-His6 in 20 ul; room temperature, 30 min; DNA-binding inhibition
# Sequence of EmrR-His6 (EmrR) (Q7CPY9 entry or part of it): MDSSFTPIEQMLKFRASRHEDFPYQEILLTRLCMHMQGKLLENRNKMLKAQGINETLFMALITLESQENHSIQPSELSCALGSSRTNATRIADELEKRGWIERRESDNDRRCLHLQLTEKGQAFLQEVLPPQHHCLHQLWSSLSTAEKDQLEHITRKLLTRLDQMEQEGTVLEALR
smiles,measurement,value
NCCc1ccc(O)c(O)c1 [dopamine],"EMSA, release of EmrR-His6 from 32P-labelled pagC-pagD promoter DNA",dopamine alone was sufficient to reduce the affinity of a pure EmrR protein
